In patent publication US12691070B2, “Cationic lipids and preparation method thereof” (RiboX Therapeutics HK Limited, priority 2023, dated 2026):

Experiments:
[1] = LNP size and polydispersity index (PDI) by dynamic light scattering; type: physicochemical; conditions: for Size: in nm (unit assumed)
Outline: (§1)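 LNPs of ionizable lipid/DSPC/cholesterol/DMG-PEG 2000 (50:10:38.5:1.5) made by microfluidic mixing of luciferase circRNA or mRNA in pH 4.5 acetate with lipids in ethanol (3:1, 12 ml/min), ionizable lipid:nucleotide 15 or 6, then dialyzed against PBS. Size, PDI (DLS) and zeta potential on Zetasizer; encapsulation by Ribogreen ± Triton X-100.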

[2] = LNP zeta potential (Zetasizer); type: physicochemical
Outline: as §1

[3] = RNA encapsulation efficacy by Quant-IT Ribogreen kit; type: physicochemical; conditions: for Encapsulation Efficiency %: LNP with cirRNA (SEQ ID NO: 1); for Encapsulation Efficiency: LNP with mRNA (SEQ ID NO: 2)
Outline: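 Encapsulation efficacy came from Ribogreen fluorescence of LNPs compared with Triton X-100-lysed LNPs. The particles carried luciferase-encoding circular or linear RNA at an ionizable lipid:ribonucleotide ratio of 15 or 6.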

Hep G2 cells [4] = assay: In vitro expression of firefly-luciferase, Hep G2; type: cell-based
Outline: (§2)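 Transfection used 100 ng/mL luciferase-encoding RNA-LNPs; activity in lysates was determined at 72 h.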

RAW 264.7 cells [5] = assay: In vitro expression of firefly-luciferase, RAW 264.7; type: cell-based
Outline: as §2

Hep G2 cells [6] = assay: In vitro toxicity (CellTiter-Glo cell viability), Hep G2; type: cell-based;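 note: percent of untreated cells luminescence signal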
Outline: (§3)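 Cells were transfected with RNA-LNPs at 1 μg/mL and, 72 hours later, viability was measured by CellTiter-Glo luminescence. Values are cell viability calculated from the luminescence signal.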

RAW 264.7 cells [7] = assay: In vitro toxicity (CellTiter-Glo cell viability), RAW 264.7; type: cell-based;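 note: percent of untreated cells luminescence signal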
Outline: as §3

BALB/C mice [8] = assay: In vivo expression, whole-body luminescence (IVIS)
Protocol: 6-8 week old, female BALB/C mice were injected with 0.05 mg*kg-1 of RNA-LNPs encoding for firefly-luciferase by intravenous injection. At 6 hours post injection, animals were intraperitoneally injected with 15 mg/ml of Luciferin substrate and whole-body luminescence was determined by a bioluminescent in vivo imaging system (IVIS).

MCP-I = MCP-I cytokine elevation in serum; type: in vivo; conditions: cirRNA (SEQ ID NO: 1) LNPs, mice
Protocol: 6-8 week old, female BALB/C mice were injected with 0.5 mg*kg-1 of RNA LNPs by intravenous injection. At 2 and 24 hours post injection, animals were bled and sera concentrations of MCP-I were determined by an immunoassay (Luminex).

[9] = test system: Alanine Aminotransferase (ALT); assay: Liver enzyme elevation in serum, ALT; type: in vivo; conditions: cirRNA (SEQ ID NO: 1) LNPs, BALB/C mice, intravenous 0.5 MPK
Protocol: (§4) 6-8 week old, female BALB/C mice were injected with 0.5 mg*kg-1 of RNA LNPs by intravenous injection. At 2 and 24 hours post injection, animals were bled and sera concentrations of Alanine Aminotransferase (ALT) and Aspartate Aminotransferase (AST) were determined by a blood chemistry analyzer.

[10] = test system: Aspartate Aminotransferase (AST); assay: Liver enzyme elevation in serum, AST; type: in vivo; conditions: cirRNA (SEQ ID NO: 1) LNPs, BALB/C mice, intravenous 0.5 MPK
Protocol: as §4

BALB/C mice [11] = assay: Local tolerance determination by footpad injection; type: in vivo; conditions: cirRNA (SEQ ID NO: 1) LNP, 0.175 mg*kg-1 subcutaneous into the footpad, 24 hours post minus prior
Protocol: 6-8 week old, female BALB/C mice were injected with 0.175 mg*kg-1 RNA LNPs by subcutaneous injection into the footpad. Prior to, and 24 hours post injections, injected footpad thickness was determined by a caliper.

[12] = cirRNA (SEQ ID NO: 1) LNPs, firefly-luciferase luminescence, Hep G2 cells
[13] = mRNA (SEQ ID NO: 2) LNP, 100 ng/mL, 72 hours post transfection, luciferase activity
[14] = cirRNA (SEQ ID NO: 1) LNPs, firefly-luciferase luminescence, RAW 264.7 cells
[15] = cirRNA (SEQ ID NO: 1) LNPs, Hep G2 cells
[16] = mRNA (SEQ ID NO: 2) LNP, 1 μg/mL, 72 hours post transfection
[17] = cirRNA (SEQ ID NO: 1) LNPs, RAW 264.7 cells
[18] = cirRNA (SEQ ID NO: 1) LNPs, BALB/C mice
[19] = mRNA (SEQ ID NO: 2) LNP, 0.05 mg*kg-1 intravenous, 6 hours post injection

Compound | PDI ([1]; LNP with cirRNA (SEQ ID NO: 1)) | Size ([1]; LNP with cirRNA (SEQ ID NO: 1)) | PDI ([1]; LNP with mRNA (SEQ ID NO: 2)) | Size ([1]; LNP with mRNA (SEQ ID NO: 2)) | Zeta (mV) ([2]; LNP with cirRNA (SEQ ID NO: 1)) | Zeta (mV) ([2]; LNP with mRNA (SEQ ID NO: 2)) | Encapsulation Efficiency % [3] | Encapsulation Efficiency [3] | In vitro Expression HepG2 (Hep G2 cells [4]; [12]) | In vitro Expression HepG2 (Hep G2 cells [4]; [13]) | In vitro Expression RAW (RAW 264.7 cells [5]; [14]) | In vitro Expression RAW (RAW 264.7 cells [5]; [13]) | In vitro Viability HepG2 (Hep G2 cells [6]; [15]) | In vitro Viability HepG2 (Hep G2 cells [6]; [16]) | In vitro Viability RAW (RAW 264.7 cells [7]; [17]) | In vitro Viability RAW (RAW 264.7 cells [7]; [16]) | In vivo Expression (Whole Body) (BALB/C mice [8]; [18]) | In vivo Expression (Whole Body) (BALB/C mice [8]; [19]) | MCP-I in Sera 2 hours After 0.5 MPK Injection (MCP-I) | MCP-I in Sera 24 hours After 0.5 MPK Injection (MCP-I) | other results
CCCCC/C=C\C/C=C\CCCCCCCCN(CCCCCCCC(=O)OC(CCCCCCCC)CCCCCCCC)CCOC(=O)NCc1ncc[nH]1 [Lipid 132, heptadecan-9-yl 8-((2-((((1H-imidazol-2-yl)methyl)carbamoyl)oxy)ethyl)((9Z,12Z)-octadeca-9,12-dien-1-yl)amino)octanoate] | 0.072 | 91.78 | 0.2359 | 56.12 | −0.7024 mV | −8.336 mV | 97% | 89.06% | 1.44E+05 | 1.83E+05 | 4.24E+05 | 1.27E+05 | 97% | 80% | 108% | 93% | 6.13E+08 | 6.62E+08 | 28.53 pg/mL | 96.56 pg/mL | ALT in Sera (IU/L) 2 hours After 0.5 MPK Injection [9]: 65.03 IU/L; ALT in Sera (IU/L) 24 hours After 0.5 MPK Injection [9]: 44.73 IU/L; AST in Sera (IU/L) 2 hours After 0.5 MPK Injection [10]: 136.00 IU/L; AST in Sera (IU/L) 24 hours After 0.5 MPK Injection [10]: 72.53 IU/L; Footpad Thickness (24 h−0 h, mm) (BALB/C mice [11]): 1.24 mm
CCCCCCCCCC(=O)OCCCCCCCN(CCCCCCCCOC(=O)C(CCCCCC)CCCCCCCC)CCOC(=O)NCCN1CCCCC1 (stereo not shown) [Lipid 196] | 0.0364 | 89.57 | 0.1806 | 117.5 | 0.4256 mV | −2.076 mV | 93% | 91.87% | 5.54E+04 | 1.58E+06 | 1.22E+04 | 2.31E+06 | 103% | 91% | 91% | 110% | 1.86E+07 | 1.41E+08 | 489.33 pg/mL | 197.30 pg/mL | ALT in Sera (IU/L) 2 hours After 0.5 MPK Injection [9]: 80.33 IU/L; ALT in Sera (IU/L) 24 hours After 0.5 MPK Injection [9]: 93.00 IU/L; AST in Sera (IU/L) 2 hours After 0.5 MPK Injection [10]: 202.33 IU/L; AST in Sera (IU/L) 24 hours After 0.5 MPK Injection [10]: 180.67 IU/L; Footpad Thickness (24 h−0 h, mm) (BALB/C mice [11]): 0.44 mm
CCCCC/C=C\C/C=C\CCCCCCCCN(CCCCCCCC(=O)OC(CCCCCCCC)CCCCCCCC)CCCOC(=O)NCCN(C)C [Lipid 270] | 0.258 | 66.18 | 0.1592 | 101.7 | 3.201 mV | 6.102 mV | 95% | 94.52% | 9.88E+06 | 2.31E+07 | 9.33E+06 | 3.27E+06 | 95% | 116% | 120% | 96% | 9.90E+07 | 3.45E+08 | 4192.67 pg/mL | 564.30 pg/mL | ALT in Sera (IU/L) 2 hours After 0.5 MPK Injection [9]: 253.00 IU/L; ALT in Sera (IU/L) 24 hours After 0.5 MPK Injection [9]: 79.00 IU/L; AST in Sera (IU/L) 2 hours After 0.5 MPK Injection [10]: 477.67 IU/L; AST in Sera (IU/L) 24 hours After 0.5 MPK Injection [10]: 220.00 IU/L; Footpad Thickness (24 h−0 h, mm) (BALB/C mice [11]): 0.65 mm
CCCCCCCCC(CCCCCCCC)OC(=O)CCCCCCCN(CCCCCCCCOC(=O)C(CCCCCC)CCCCCCCC)CCOC(=O)NCCN(C)C (stereo not shown) [Lipid 66, heptadecan-9-yl 10-(8-((2-hexyldecanoyl)oxy)octyl)-2-methyl-6-oxo-7-oxa-2,5,10-triazaoctadecan-18-oate] | 0.05 | 86.66 | 0.09823 | 75.46 | −2.1 mV | 2.213 mV | 96% | 88.25% | 9.78E+07 | 1.59E+08 | 9.90E+06 | 6.79E+06 | 93% | 82% | 100% | 72% | 2.03E+09 | 3.50E+09 | 7911.52 pg/mL | 448.43 pg/mL | ALT in Sera (IU/L) 2 hours After 0.5 MPK Injection [9]: 51.97 IU/L; ALT in Sera (IU/L) 24 hours After 0.5 MPK Injection [9]: 63.6 IU/L; AST in Sera (IU/L) 2 hours After 0.5 MPK Injection [10]: 176.40 IU/L; AST in Sera (IU/L) 24 hours After 0.5 MPK Injection [10]: 148.60 IU/L; Footpad Thickness (24 h−0 h, mm) (BALB/C mice [11]): 1.43 mm
